Measured values published in patent US12144792B2, “Therapeutic agents for neurodegenerative diseases” (priority 2016, dated 2024).

Key:
[1] = tested on: Npc1^−/− mice; assay: Weight data; type: in vivo, mouse; conditions: 0.1 g/kg from weaning, vs untreated group
From the text: Separate groups of Npc1^−/− and Npc1^+/+ mice were left untreated, as controls. Animals were weighed twice a week. Weights were averaged (mean) across all mice in each group and compared.

[2] = tested on: patient with spinocerebellar ataxia 28 (SCA 28); assay: Case study, clinical evaluation; type: in vivo, human; conditions: Ex. 14, SCA 28; 5 g per day; after about one month
Experimental: A gait analysis was performed before treatment commenced. After about one month of treatment, medication was stopped and the patient was evaluated. […] The patient reported that they no longer walked like a robot and could climb the stairs without using the banisters.

[3] = tested on: AB variant of Tay-Sachs disease patient fibroblasts; assay: Glycosphingolipid (GSL) levels via HPLC; type: cell-based, human; conditions: 1 mM for 6 days
[4] = tested on: Npc1^−/− mouse; assay: Lifespan; type: in vivo; conditions: 0.1 g/kg from 3 weeks of age
From the text: Separate groups of Npc1^−/− and Npc1^+/+ mice were left untreated, as controls.

[5] = tested on: Aspartylglucosaminuria patient fibroblasts; assay: Lysosomal volume via LysoTracker; type: cell-based, human; conditions: 1 mM, 6 days, vs untreated
[6] = tested on: Hexb^−/− mouse (Sandhoff disease model); assay: Lifespan of Sandhoff mouse; type: in vivo; conditions: 0.1 g/kg from 3 weeks of age, p<0.05 vs untreated
Experimental: This study made use of a mouse model of Sandhoff disease, the Hexb^−/− mouse, as described in Jeyakumar et al. (Jeyakumar, M. et al. (1999) Proc. Natl. Acad. Sci. USA 96: 6388-6393).
In FIG. 7A, acetyl-leucine-treated mice were treated with 0.1 g/kg acetyl-leucine from 3 weeks of age. The asterisks (*) indicates a p-value of <0.05 vs untreated Sandhoff mice. Data is average of n=6 mice per group. Without treatment, the median survival time of Sandhoff mice was 112 days. Treatment with acetyl-leucine (0.1 g/kg body weight since 3 weeks of age) increased the median lifespan to 120 days.

[7] = tested on: microtubule-associated protein 1A/1B-light chain 3-phosphatidylethanolamine conjugate (LC3-II); assay: LC3-II levels relative to tubulin loading control; type: in vivo, mouse; conditions: NPC1−/− mice, 0.1 g/kg body weight daily from 3 weeks of age; sacrificed at 8 weeks
Experimental: The Niemann-Pick Disease Type C (NPC) mouse model shares a number of pathological features with Alzheimer's disease (AD) as described herein. […] Mice were sacrificed at 8 weeks of age. Levels of amyloid precursor protein C-terminal fragments (APP-CTFs) were evaluated relative to total amyloid precursor protein (APP) levels in the cerebellum for wild type, untreated wild type NPC1^−/− mice, and AL-treated wild type NPC1^−/− mice. Levels of microtubule-associated protein 1A/1B-light chain 3-phosphatidylethanolamine conjugate (LC3-II) were also evaluated relative to levels of tubulin loading control for wild type, untreated wild type NPC1^−/− mice, and AL-treated wild type NPC1^−/− mice.

[8] = tested on: Npc1^−/− (BALB/cNctr-Npc1^m1N) mouse; assay: Coat condition and disease indications by observation; type: in vivo
From the text: Separate groups of Npc1^-/- and Npc1^+/+ mice were left untreated, as controls.

[9] = tested on: fibroblast cell line from an NPC patient; assay: Lysosomal volume via LysoTracker; type: cell-based, human; conditions: fibroblasts from NPC patient of mild clinical severity; 1 mM
Experimental: A fibroblast cell line from an NPC patient was treated for 3 days with N-acetyl-DL-leucine (1 mM) and relative lysosomal volume was quantified via LysoTracker, a fluorescent dye that accumulates in acidic organelles. Increased LysoTracker fluorescence is indicative of an increase in lysosomal size and/or number, and is a hallmark of NPC cells.

[10] = tested on: Mucolipidosis Type II (MLII) patient fibroblasts; assay: Lysosomal volume via LysoTracker; type: cell-based, human; conditions: 1 mM, 6 days, vs untreated
[11] = tested on: Niemann-Pick A (NPA) patient fibroblasts; assay: Lysosomal volume via LysoTracker; type: cell-based, human; conditions: 1 mM, 6 days, vs untreated
[12] = tested on: Hexb^−/− mouse (Sandhoff disease model); assay: Bar crossing test; type: in vivo
From the text: This study made use of a mouse model of Sandhoff disease, the Hexb^−/− mouse, as described in Jeyakumar et al. (Jeyakumar, M. et al. (1999) Proc. Natl. Acad. Sci. USA 96: 6388-6393). The bar crossing test is a method for assessing motor function in mice in which the mouse is placed hanging from the centre of a horizontal bar by its front limbs. A wild-type mouse with normal motor function will be able to engage its hind limbs and thereby move to one of the platforms at either end of the bar, and in doing so complete the test. […] In FIG. 7B, acetyl-leucine treatment of 0.1 g/kg body weight was provided from 3 weeks of age. The acetyl-leucine treated Sandhoff mice retained the ability to complete the test up to 13 weeks of age (inclusive). Data shown is the mean of 6 mice per group. The treated Sandhoff mice retained the ability to complete the test up to 13 weeks of age (inclusive).

[13] = tested on: patients with amyotrophic lateral sclerosis (ALS); assay: Case studies, medical examination; type: in vivo, human
From the text: The results were documented by video.

[14] = tested on: patient with Spinocerebellar Ataxia (SCA) 1; assay: Case study, clinical examination; type: in vivo, human; conditions: Ex. 16, SCA 1
From the text: Three months later the medication was stopped.

[15] = Ex. 7 Patient 1, ALS, after a further 20 days

**Q.** How did the “delay of weight loss symptoms” value [1] turn out when `CC(=O)NC(CC(C)C)C(=O)O` (racemic) [acetyl-DL-leucine] was run?
**A.** delayed these weight loss symptoms by two weeks

**Q.** What about the symptomatology [2] of the same molecule?
**A.** reduced dizziness (almost vanished), and a more stable gait

**Q.** And the GSL levels [3]?
**A.** trend towards decreased GSL levels

**Q.** And the lifespan [4]?
**A.** small but statistically significant increase in lifespan

**Q.** And the “LysoTracker fluorescence (lysosomal volume)” value (“LysoTracker fluorescence” for short) [5]?
**A.** trend in reducing LysoTracker fluorescence

**Q.** And the lifespan [6]?
**A.** statistically significant increase in the lifespan

**Q.** What about the “LC3-II levels relative to tubulin” value [7] of the same molecule?
**A.** lowering of LC3-II

**Q.** What about the “onset of discernible indication of disease” value ([8]; Npc1−/− mice treated from weaning, untreated show it from 5-6 weeks of age) of the same molecule?
**A.** did not display such symptoms until two or more weeks later

**Q.** What about the coat condition ([8]; Npc1−/− mice, 0.1 g/kg in chow from weaning, nine weeks of age) of the same molecule?
**A.** smooth and glossy coat

**Q.** And the “LysoTracker fluorescence” value [9]?
**A.** significant decrease in LysoTracker fluorescence

**Q.** And the “LysoTracker fluorescence” value [10]?
**A.** statistically significant reduction in LysoTracker fluorescence

**Q.** What about the “LysoTracker fluorescence” value [11] of the same molecule?
**A.** statistically significant reduction in LysoTracker fluorescence

**Q.** What about the “age up to which the ability to complete the bar crossing test was retained” value ([12]; Sandhoff mice, 0.1 g/kg from 3 weeks of age, inclusive) of the same molecule?
**A.** up to 13 weeks of age

**Q.** And the “motor function in bar-crossing test” value ([12]; Sandhoff mouse, 0.1 g/kg body weight from 3 weeks of age)?
**A.** improved motor function and hind-limb mobility/engagement

**Q.** What about the speech ([13]; Ex. 7 Patient 1, ALS, 3 then 5 gram per day, after 15 days) of the same molecule?
**A.** significant improvement of speech

**Q.** And the “speech after stopping treatment” value ([13]; Ex. 7 Patient 1, ALS, about 7 days plus 1-2 additional weeks off treatment)?
**A.** deterioration of speech

**Q.** And the “paresis of the right foot-dorsiflexors and foot drop” value [13, 15]?
**A.** improved dramatically and were clinically hardly detectable

**Q.** What about the sleep [13, 15] of the same molecule?
**A.** improvement in sleep

**Q.** And the speech [13, 15]?
**A.** further improvement of speech

**Q.** What about the “symptomatology after resuming treatment” value ([13]; Ex. 7 Patient 1, ALS, resumed after second discontinuation) of the same molecule?
**A.** improved symptomatology, in particular speech

**Q.** And the symptoms on re-examination ([13]; Ex. 7 Patient 2, ALS, 3 then 5 g per day, after approximately 2 months)?
**A.** progredient deterioration of the motor function of the left hand, but a discrete improvement of walking

**Q.** What about the symptomatology ([13]; Ex. 7 Patient 3, ALS, 3 then 5 g per day, after one month) of the same molecule?
**A.** did not report improvement of symptomatology

**Q.** And the symptomatology ([13]; Ex. 7 Patient 4, ALS, 3 then 5 g per day, after about one month)?
**A.** subjective improvement of dysphagia and less hypersalivation

**Q.** What about the symptomatology after suspension ([13]; Ex. 7 Patient 4, ALS, 10 days after therapy was suspended) of the same molecule?
**A.** worsening of symptomatology

**Q.** And the symptoms ([14]; 5 g/day, three weeks on medication)?
**A.** all symptoms significantly improved

**Q.** And the side-effects ([14]; over two years on the same dosage)?
**A.** without any side-effects

**Q.** What about the “signs and symptoms after stopping” value ([14]; two weeks after the medication was stopped) of the same molecule?
**A.** the intensity of the signs and symptoms were the same as before therapy
